Test [1] addresses ROCK2 (human) (UniProt O75116). The test can be described thus: Assessment of ROCK2 Kinase Activity using Luciferin-Luciferase Assay.
The target in test [2] is ROCK2 (human) (UniProt O75116). The experiment in a line: Assessment of ROCK2 Kinase Activity using IMAP Assay.
In test [3] the target is EGFR (Human), P00533 [T790M/L858R]. The settings on record: h1975.
The target in test [4] is MAPK14 (UniProt Q16539). The experiment in a line: p38-mediated EGFR Peptide Phosphorylation Inhibition.
In test [5] the target is MAPK14 (human) (UniProt Q16539). The experiment in a line: p38 --- IL-1 Inhibition (whole blood cells).
In test [6] the target is EGFR (human) (UniProt P00533). To be noted: a431.
The target in test [7] is MAPK14 (human) (UniProt Q16539). The experiment in a line: p38-mediated TNF-Inhibition (LPS-Stimulated PBMCs). The settings on record: pbmc.
Test [8] has the same target. The experiment in a line: p38-mediated IL-1 Inhibition (LPS-Stimulated PBMCs). To be noted: pbmc.
In the next test the test system is MAPK14 (OF1 mice). The test can be described thus: P38-mediated TNF-alpha Inhibition (OF1 Mice).
Test [9] concerns the target EGFR (human) (UniProt P00533). To be noted: A431 epidermoid carcinoma.
Test [10] addresses CDK2 (human) (UniProt P24941). The experiment in a line: Enzyme Assay.
The target in test [11] is CDK2 (human) (UniProt P24941). The experiment in a line: Enzyme Assay. The source holds these as a separate data set.
The target of test [12] is EGFR (human) (UniProt P00533). The test can be described thus: Assessment of EGFR Kinase Activity.
For test [13], the target named is EGFR (human) (UniProt P00533).
For test [14], the target named is MAPK14 (UniProt Q16539). The experiment in a line: p38 Inhibition (Phosphorylation of EGF Receptor Peptide).
In test [15] the target is EGFR (UniProt P00533).
In test [16] the test system is MAPK14 (rat). The test can be described thus: p38-alpha Inhibition (Collagen-Induced Arthritis).
In test [17] the target is CDK2 (UniProt P24941). The test can be described thus: Enzyme Assay.
For test [18], the target named is CDK2 (UniProt P24941). The experiment in a line: Enzyme Assay. The source holds these as a separate data set.
The next test deals with PIK3CG;PIK3CA (human) (UniProt P48736). The test can be described thus: Inhibition of PIK3CG/PIK3CA Kinase Activity.
Test [19] has as its target ROCK2 (human) (UniProt O75116). The test can be described thus: Inhibition of ROCK2 Kinase Activity.
The target of test [20] is ROCK2 (human) (UniProt O75116). The experiment in a line: Inhibition of ROCK2 Kinase Activity (MLSCN Assay).
Test [21] has as its target EGFR (UniProt P00533). The source holds these as a separate data set.
The target in test [22] is EGFR (human), P00533 [WT].
The target in test [23] is EGFR (human) (UniProt P00533). To be noted: A431; concentration not given here.
Test [24] addresses EGFR (human), P00533 [WT]. This is another data set of the same source.
Test [25] deals with EGFR (UniProt P00533). This is another data set of the same source.
In test [26] the target is CDK2 (UniProt P24941). The experiment in a line: Enzyme Assay. This is another data set of the same source.
For test [27], the target named is CDK2 (human) (UniProt P24941). The experiment in a line: Enzyme Assay. The source holds these as a separate data set.
For test [28], the target named is MAPK14 (UniProt Q16539).
For test [29], the system named is MAPK14 (rat). The settings on record: dose or concentration not given here.
Test [30] deals with EGFR (human) (UniProt P00533). The source holds these as a separate data set.
Another test concerns the target PIK3CB (Human) (UniProt P42338). The experiment in a line: Enzyme Assay.
The target in another test is PIK3CA (human) (UniProt P42336). The experiment in a line: Enzyme Assay.
In the next test the target is PIK3CG (human) (UniProt P48736). The experiment in a line: Enzyme Assay.
In test [31] the target is PIK3CD (Human) (UniProt O00329). The experiment in a line: Enzyme Assay.
Test [32] shares this target. The experiment in a line: Cell-Based Assay. The settings on record: raji.

For orientation: IC50 means the midpoint of a concentration-inhibition curve. Higher therefore signals lower potency. As usually defined, the inhibition is how much of the control response was suppressed. For orientation: ED50 means the dose at which the effect has come halfway, by size or by number of responders. A higher ED50 goes with a need for a large dose.

EGFR, sequence (P00533 whole entry, looked up): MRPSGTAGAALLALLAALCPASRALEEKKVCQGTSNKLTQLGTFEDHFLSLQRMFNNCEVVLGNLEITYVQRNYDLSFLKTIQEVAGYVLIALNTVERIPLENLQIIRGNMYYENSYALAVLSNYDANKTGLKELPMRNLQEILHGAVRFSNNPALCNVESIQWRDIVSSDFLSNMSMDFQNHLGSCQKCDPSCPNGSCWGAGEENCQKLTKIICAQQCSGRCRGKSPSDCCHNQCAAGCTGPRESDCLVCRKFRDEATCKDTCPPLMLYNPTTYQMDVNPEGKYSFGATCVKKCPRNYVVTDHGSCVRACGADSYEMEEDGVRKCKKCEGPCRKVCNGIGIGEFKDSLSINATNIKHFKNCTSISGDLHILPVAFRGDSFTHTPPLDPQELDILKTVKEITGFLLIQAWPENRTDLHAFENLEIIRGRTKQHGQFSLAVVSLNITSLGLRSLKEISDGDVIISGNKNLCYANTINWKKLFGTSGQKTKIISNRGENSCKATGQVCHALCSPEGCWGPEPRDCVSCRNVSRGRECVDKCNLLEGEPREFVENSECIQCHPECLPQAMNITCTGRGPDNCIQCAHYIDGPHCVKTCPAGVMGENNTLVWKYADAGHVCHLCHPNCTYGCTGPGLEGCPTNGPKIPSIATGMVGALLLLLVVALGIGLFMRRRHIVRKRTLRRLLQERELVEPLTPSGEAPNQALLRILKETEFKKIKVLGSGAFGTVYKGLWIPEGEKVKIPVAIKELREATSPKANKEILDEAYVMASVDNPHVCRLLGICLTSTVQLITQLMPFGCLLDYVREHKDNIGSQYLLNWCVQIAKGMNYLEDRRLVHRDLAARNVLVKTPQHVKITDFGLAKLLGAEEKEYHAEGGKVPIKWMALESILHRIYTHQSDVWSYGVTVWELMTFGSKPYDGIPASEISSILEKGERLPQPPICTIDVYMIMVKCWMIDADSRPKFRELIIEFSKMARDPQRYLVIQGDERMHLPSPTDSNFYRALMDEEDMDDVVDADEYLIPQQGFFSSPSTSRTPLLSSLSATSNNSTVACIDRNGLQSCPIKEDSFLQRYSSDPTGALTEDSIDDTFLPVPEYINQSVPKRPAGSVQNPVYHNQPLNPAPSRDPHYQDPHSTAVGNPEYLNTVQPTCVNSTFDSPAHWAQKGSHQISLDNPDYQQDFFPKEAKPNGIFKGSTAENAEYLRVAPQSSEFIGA
EGFR (human), sequence (P00533 whole entry, looked up): as above
ROCK2 (human), sequence (O75116 whole entry, looked up): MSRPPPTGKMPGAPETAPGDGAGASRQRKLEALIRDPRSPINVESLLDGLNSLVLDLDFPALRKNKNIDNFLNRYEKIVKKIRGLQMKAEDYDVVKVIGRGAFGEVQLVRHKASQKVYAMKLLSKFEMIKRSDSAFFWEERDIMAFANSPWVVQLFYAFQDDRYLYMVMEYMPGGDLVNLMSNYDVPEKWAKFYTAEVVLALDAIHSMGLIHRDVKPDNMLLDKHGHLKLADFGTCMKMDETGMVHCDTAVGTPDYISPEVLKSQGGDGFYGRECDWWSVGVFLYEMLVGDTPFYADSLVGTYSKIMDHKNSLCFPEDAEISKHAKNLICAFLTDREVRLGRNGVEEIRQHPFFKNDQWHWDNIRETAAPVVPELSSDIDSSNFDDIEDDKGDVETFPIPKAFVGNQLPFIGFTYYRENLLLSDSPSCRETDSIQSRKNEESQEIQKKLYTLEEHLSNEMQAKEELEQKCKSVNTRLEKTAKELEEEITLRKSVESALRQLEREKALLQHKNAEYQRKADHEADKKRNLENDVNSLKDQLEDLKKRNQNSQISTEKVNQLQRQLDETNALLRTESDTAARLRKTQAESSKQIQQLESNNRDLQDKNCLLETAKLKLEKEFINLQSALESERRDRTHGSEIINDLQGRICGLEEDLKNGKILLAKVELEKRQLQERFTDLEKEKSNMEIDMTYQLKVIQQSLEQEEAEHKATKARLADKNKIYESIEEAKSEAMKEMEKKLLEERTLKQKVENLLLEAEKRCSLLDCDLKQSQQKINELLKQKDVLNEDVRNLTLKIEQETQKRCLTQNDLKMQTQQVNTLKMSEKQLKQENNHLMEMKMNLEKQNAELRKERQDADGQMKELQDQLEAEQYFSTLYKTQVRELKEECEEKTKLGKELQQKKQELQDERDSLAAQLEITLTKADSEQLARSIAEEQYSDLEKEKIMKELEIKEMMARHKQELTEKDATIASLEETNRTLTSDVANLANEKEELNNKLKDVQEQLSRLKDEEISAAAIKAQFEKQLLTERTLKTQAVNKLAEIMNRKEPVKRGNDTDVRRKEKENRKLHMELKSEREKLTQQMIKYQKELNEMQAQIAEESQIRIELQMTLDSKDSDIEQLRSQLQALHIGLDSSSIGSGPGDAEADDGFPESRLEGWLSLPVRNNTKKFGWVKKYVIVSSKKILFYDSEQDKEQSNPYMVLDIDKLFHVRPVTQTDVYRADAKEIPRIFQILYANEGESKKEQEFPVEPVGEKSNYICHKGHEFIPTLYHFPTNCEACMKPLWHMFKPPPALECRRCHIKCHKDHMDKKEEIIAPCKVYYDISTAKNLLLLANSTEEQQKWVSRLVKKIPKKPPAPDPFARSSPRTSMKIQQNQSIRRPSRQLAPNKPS
MAPK14, sequence (Q16539 whole entry, looked up): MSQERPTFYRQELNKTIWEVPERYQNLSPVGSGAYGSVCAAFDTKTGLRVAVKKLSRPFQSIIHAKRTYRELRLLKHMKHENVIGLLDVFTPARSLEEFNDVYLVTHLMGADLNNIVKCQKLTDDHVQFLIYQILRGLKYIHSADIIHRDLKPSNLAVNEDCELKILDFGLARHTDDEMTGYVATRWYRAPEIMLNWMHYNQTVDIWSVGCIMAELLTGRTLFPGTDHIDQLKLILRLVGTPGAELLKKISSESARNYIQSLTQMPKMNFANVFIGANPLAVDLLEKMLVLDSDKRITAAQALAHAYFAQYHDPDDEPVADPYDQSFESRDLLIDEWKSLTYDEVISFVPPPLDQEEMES
MAPK14 (human), sequence (Q16539 whole entry, looked up): as above

In the case of `CN1CCc2ccc(NC(=O)c3cccc(CNC(=O)c4ccc(-c5csnn5)cc4)c3)cc2C1`, the IC50 on ROCK2 (human) [1] and against ROCK2 (human) [2] was 0.0046 µM in each case.
Turning to `C=CC(=O)NCCN1C(=O)N(Cc2ccccc2)Cc2cnc(Nc3ccc(N4CCN(C)CC4)cc3OC)nc21`, the IC50 in test [3] is over 10 µM.
Take `O=c1ncn2nc(Sc3ccccc3)ccc2c1-c1c(Cl)cccc1Cl`: the IC50 against MAPK14 [4] was 1.3 µM; at MAPK14 (human) [5], 3 µM.
As to `COc1ccc(/C=C/C(=O)Nc2cccc(Oc3cc(Nc4ccc(OCc5cccc(F)c5)c(Cl)c4)ncn3)c2)cc1OC`, the concentration for half-maximal inhibition (IC50) at EGFR (human) [6] is over 20 µM.
Take `O=C1NCN2N=C(Sc3ccccc3Br)C=CC2=C1c1c(Cl)cccc1Cl`: the results for the IC50 at MAPK14 (human) [7] and against MAPK14 (human) [8] were 0.16 µM and 0.24 µM, respectively.
Turning to `CN1CCC(O)(c2nc(-c3ccc(F)cc3)c(-c3ccncc3)s2)CC1`, the inhibition in the test with MAPK14 (OF1 mice) is 0%.
Regarding `Cn1c(SSc2c(C(=O)Nc3ccccc3)c3ccc(C(F)(F)F)cc3n2C)c(C(=O)Nc2ccccc2)c2cc(C(F)(F)F)ccc21`, the IC50 on EGFR (human) [9] was over 100 µM.
Take `O=C1Nc2ccc(Br)cc2/C1=C1/Nc2ccccc2C1=NO`: the values for the IC50 against CDK2 (human) [10], against CDK2 (human) [11] and against EGFR (human) [12] were 0.12 µM, 0.46 µM and over 100 µM, respectively.
Molecule `COc1cc2ncnc(Nc3ccc(NC(=O)NC4CCCCC4)cc3)c2cc1OC` came in with an IC50 on EGFR (human) [13] of 9.81 µM.
Regarding `O=c1ncn2nc(Sc3ccccc3)ccc2c1-c1ccccc1`, on MAPK14 [14], the 50% inhibitory concentration (IC50) is over 20 µM.
The molecule `COc1cc2ncc(C#N)c(Nc3cc(OC)c(OC)c(OC)c3)c2cc1OC` yielded an IC50 at EGFR [15] of 1.5 µM.
`CN1CCC(O)(c2nc(-c3ccc(F)cc3)c(-c3ccncc3)o2)CC1` returned an ED50 in the test on MAPK14 (rat) [16] of 20 mg/kg/day.
`O=c1ccc2cnc(Nc3ccc(N4CCCCC4)cc3)nc2n1C1CCCO1` (centres undefined): the results for the IC50 on CDK2 [17] and at CDK2 [18] were 1.9 µM and 0.285 µM, respectively.
On PIK3CG;PIK3CA (human), `C[C@H]1COCCN1c1cc(C2(S(C)(=O)=O)CC2)nc(-c2ccc(NC(=O)Nc3cnn(C)c3)cc2)n1` gave a 50% inhibitory concentration (IC50) of 1.04 µM.
On to `O=C(Nc1nc(-c2ccncc2)cs1)C1COc2ccccc2O1` (centres undefined), for which the results for the IC50 against ROCK2 (human) [19] and on ROCK2 (human) [20] were 0.04 µM and under 0.003 µM, respectively.
At EGFR [21], `O=C(Nc1cccc(Nc2nccc(-c3cccnc3)n2)c1)c1ccccc1S` registered an IC50 of over 50 µM.
In [22], `COc1cc(N2CCN(C(C)=O)CC2)ccc1Nc1ncc(Cl)c(-c2c[nH]c3ccccc23)n1` gave an IC50 of 0.079 µM.
On to `Oc1cccc(-c2nc3ccc(O)cc3s2)c1`, for which, at EGFR (human) [23], the inhibition was found to be 4%.
Regarding `Brc1cccc(Nc2ncnc3ccccc23)c1`, the IC50 worked out at 0.027 µM in test [24] and 0.126 µM at EGFR [25].
Take `O=C1CN=C2C=NC(Nc3ccc(N4CCNCC4)cc3)=NC2N1C1CCCC1` (centres undefined): the IC50 on CDK2 [26] came out at 0.61 µM; on CDK2 [17] it was 0.18 µM.
Take `COc1cc(F)ccc1-c1cc(Nc2cc(CS(C)(=O)=NC#N)ccn2)ncc1F` (centres undefined): the figures for the IC50 on CDK2 (human) [11] and at CDK2 (human) [27] were 0.072 µM and 1.42 µM, respectively.
At MAPK14 [28], `COc1cc(N)nc2[nH]c(-c3ccc(F)cc3)c(-c3ccncc3)c12` yielded an activity of 6 nM. The molecule further had an inhibition with MAPK14 (rat) [29] of 97%.
Regarding `N#CC(C#N)=C(N)/C(C#N)=C/c1ccc2ccccc2n1`, the IC50 against EGFR (human) [30] came to 1.7 µM.
As to `C[C@H](NC(=O)c1c(N)nn2cccnc12)c1cc2cccc(Cl)c2c(=O)n1CCNS(=O)(=O)C(F)(F)F`, the IC50 on PIK3CB (Human) lay within 1 to 10 µM; at PIK3CA (human) it was 1 to 10 µM; against PIK3CG (human), 0.5 to 1 µM; on PIK3CD (Human) [31], 1 to 10 µM; against PIK3CD (Human) [32], 0.01 to 0.1 µM.

For the origin of these results see the Kinase Knowledgebase extract (Sharma et al. 2016).
